Here are results for two molecules from US6696433B2, “Use of sex steroids function modulators to treat wounds and fibrotic disorders” (Renovo Limited, priority 1996, dated 2004).

Structures are written as SMILES. Marks after values point to notes of the source that are not given here.

One data set concerns Human dermal fibroblasts. As to the kind of experiment: Fibroblast proliferation, [3H] thymidine incorporation. It counts as cell-based. To be noted: for proliferation of fibroblasts: doses 1 pM to 1 mM, 24 hrs, fibroblasts from young and aged subjects, compared to cyclodextrin controls. Here is the method:
(§1) Human dermal fibroblasts were explanted from the 4 mm punch biopsy specimens of normal skin. Fibroblasts used in the study were cultured at 37° C. in 95% air; 5% CO2 at 100% relative humidity, in phenol red-free DMEM (Gibco), 100 U/ml penicillin, […], 1 mM sodium pyruvate, 2 mM L-glutamine, non-essential amino acids and charcoal-stripped 10% FCS (Gibco, UK) (to remove endogenous steroids).
(§2) Cultured cells at passage 3-5 were seeded overnight in 24-well plates at a density of 2×10^5 cells per well in serum free media. The following morning oestrogen or progesterone (made soluble by the incorporation of the carrier cyclodextrin; Sigma, Poole), ranging from 1 pM to 1 mM doses, were added to the medium for 24 hrs. All samples were assessed in triplicate. The media was removed after the 24 hr incubation. 1 mg/ml of aprotinin, leupeptin and pepstatin A was then added to the media which was used immediately in a TGF-β assay (see below). Controls included cyclodextrin at the appropriate concentration, and serum-free medium alone.
The cells were then incubated with [^3H] thymidine in serum-free medium (0.5 μCi/well) to assess the effect of oestrogen or progesterone on fibroblast proliferation. After 24 hrs, the thymidine solution was aspirated and replaced by 10% TCA for 4 hrs at 4° C. The TCA was replaced by 250 μls 1M NaOH solution for 18 hrs. Two 100 μl aliquots from each well were measured for radioactivity in a scintillation counter. In parallel experiments, the effect of hormones/controls on protein synthesis was investigated by the addition of 20 μg/ml cycloheximde (to inhibit protein translation) for 15 mins prior to the 24 hr incubation period.

The next data set concerns elastase. As to the kind of experiment: Wound elastase activity: fibronectin zymography, immunoblotting and elastase substrate degradation. It counts as in vivo, human. The following applies: day 7 wounds compared to placebo. Here is the method: Proteases responsible for fibronectin degradation were identified by zymography using fibronectin-containing acrylamide gels (12% acrylamide and 0.33 mg/ml fibronectin, Central Blood Products Ltd). Tissue samples were lyophilized and homogenized using a ground glass homogenizer containing 0.5 ml buffer (100 mM Tris/HCl, 6M Urea, 15 mM CaCl2, 0.25% Triton-X100, pH 7.4). After centrifugation at 11,000 rpm for 10 min at 4° C. samples (20 μg dry wt) were incubated for 30 min at 37° C. with 2× Laemmli sample buffer and subjected to electrophoresis under non-reducing conditions (Laemmli, 1970). After electrophoresis, the gels were washed twice with 2.5% Triton-X100 for 1 hr to remove SDS. The gels were briefly washed with double distilled water and incubated for 18 h at 37° C. in developing buffer containing 50 mM Tris/HCl, 150 mM NaCl and 5 mM CaCl2, pH 7.4. At the end of incubation the gels were stained with 0.5% Coomassie brilliant blue and destained. […]
Tissue samples (20 μg dry wt) and human neutrophil elastase (0.01-0.3 μg/ml) were incubated for up to 1 h at 37° C. in 200 μl of 0.1M Hepes buffer, pH 7.5, containing 0.5M NaCl, 10% dimethylsulfoxide and 0.1 mM elastase substrate (methoxysuccinyl-ala-ala-pro-val-p-nitroanilide; Calibiochem Co;). Substrate degradation was determined by measuring OD410 (Dynatech MR5000). […] Results were expressed as ng/ml elastase activity/20 μg dry wt.

Data set [1] relates to 4 mm punch biopsy wounds of the upper inner arm. As to the kind of experiment: Topical oestrogen patch clinical trial of wound healing in elderly men and women. It counts as in vivo, human. On the set-up: key to Collagen Quantities: +=minimal quantities; ++=less than normal skin; +++=similar to normal skin; ++++=greater than normal skin. The following applies: for Collagen Quantities: oestradiol patch, DAY 80.

The test system of data set [2] is TGF-β1 secreted by dermal fibroblasts. In words: TGF-β levels in fibroblast conditioned media, mink lung cell growth inhibition assay. It counts as cell-based, human. To be noted: for TGF-beta LEVELS: 24 hr; for active TGF-β1 (non-heat-activated samples): fibroblast conditioned media after 24 hr treatment, compared to control; for FOLD INDUCTION of TGF-beta levels: relative to control. Here is the method:
as §1, §2
TGF-β levels in the media (2.1.5.2) were determined using a mink lung growth inhibition assay as described by Danielpour et al, (J Cell Physiol, 138 p79-86) Briefly, mink lung epithelial cells (MLECs) were maintained in DMEM and 10% FCS at 37° C. in 10% CO2. Subconfluent cells were trypsinized, resuspended in 10% FCS, pelleted at 500 g for 5 min, washed with 10 ml of assay buffer (DMEM, 2% FCS, 10 mM HEPES pH 7.4, penicillin 25 U/ml, streptomycin 25 μg/ml), resuspended in assay buffer and seeded at 10^5 cells/well in a 24-well Costar plate. After 1 hr conditioned media or control media (with varying concentrations of hormones ranging from 1 pM-1 mM or cyclodextrin alone) were added, 22 hrs later cells were pulsed with [^3H] thymidine (0.5 μCi/well) for 2 hrs at 37° C., and the procedure described above for the extraction and measurement of radioactivity followed (2.1.5.3). A standard curve was produced using 10-1000 pg/ml TGF-β standard (R&D) from which inhibition data could be converted to pg/ml. Results were presented as pg/ml TGF-β/10^5 cells (relative to control valves for each individual hormone concentration).

Where [3] appears, read: OLD person (2A or 2B) fibroblasts, mM dose.
The mark [4] stands for this setting: OLD person (2A or 2B) fibroblasts, nM dose.
Where [5] appears, read: OLD person (2A or 2B) fibroblasts, pM dose.
Setting [6] is: OLD person (2A or 2B) fibroblasts, μM dose.
Setting [7] is: YOUNG person (2C) fibroblasts, mM dose.
The mark [8] stands for this setting: YOUNG person (2C) fibroblasts, nM dose.
[9] abbreviates: YOUNG person (2C) fibroblasts, pM dose.
Setting [10] is: YOUNG person (2C) fibroblasts, μM dose.

Consider `C[C@]12CC[C@@H]3c4ccc(O)cc4CC[C@H]3[C@@H]1CC[C@@H]2O` [Oestrogen], for which, in the data set with Human dermal fibroblasts, the proliferation of fibroblasts entry is given as “inhibited”. Further, the “elastase activity (synthetic elastase substrate degradation assay)” value in the data set with elastase is reported as “significantly reduced”. In addition, the “Collagen Quantities” value in data set [1] (FEMALES (3A)) and in data set [1] (MALES (3C)) was “++++” in each case. Further, the Collagen levels result in data set [1] (day 7 and day 80 post-wounding, both sexes (3A and 3C) compared to placebo) is reported as “consistently increased”. Also, the “TGF-beta LEVELS” value is recorded as 416 ± 80 pg/ml/10^5 cell/24 hr in data set [2] (setting [3]); 280 ± 60 pg/ml/10^5 cell/24 hr in data set [2] (setting [4]); 80 ± 50 pg/ml/10^5 cell/24 hr in data set [2] (setting [5]); 315 ± 47 pg/ml/10^5 cell/24 hr in data set [2] (setting [6]); 428 ± 58 pg/ml/10^5 cell/24 hr in data set [2] (setting [7]); 312 ± 30 pg/ml/10^5 cell/24 hr in data set [2] (setting [8]). Further, the entries for the “TGF-beta LEVELS” value in data set [2] (setting [9]) and in data set [2] (setting [10]) were 118 ± 24 pg/ml/10^5 cell/24 hr and 282 ± 22 pg/ml/10^5 cell/24 hr, respectively. Further, the “active TGF-β1 (non-heat-activated samples)” value in data set [2] is “no increase”.
In the case of `CC(=O)[C@H]1CC[C@H]2[C@@H]3CCC4=CC(=O)CC[C@]4(C)[C@H]3CC[C@]12C` [Progesterone, progesterone], in the data set on Human dermal fibroblasts (at 1 mM, p<0.05), the “degree of inhibition of fibroblast proliferation relative to oestrogen” value is given as “significantly greater degree than oestrogen”. In addition, the proliferation of fibroblasts result in the data set on Human dermal fibroblasts is on record as “inhibited”. For the same molecule, the “TGF-beta LEVELS” value in data set [2] (setting [3]) stood at 33 ± 13 pg/ml/10^5 cell/24 hr; in data set [2] (setting [4]) it was 90 ± 38 pg/ml/10^5 cell/24 hr; in data set [2] (setting [5]) it was 32 ± 13 pg/ml/10^5 cell/24 hr; in data set [2] (setting [6]), 65 ± 15 pg/ml/10^5 cell/24 hr; in data set [2] (setting [7]) it was 82 ± 13 pg/ml/10^5 cell/24 hr; in data set [2] (setting [8]) it was 115 ± 20 pg/ml/10^5 cell/24 hr. The “TGF-beta LEVELS” value is 70 ± 31 pg/ml/10^5 cell/24 hr in data set [2] (setting [9]) and 96 ± 13 pg/ml/10^5 cell/24 hr in data set [2] (setting [10]). Besides, the “FOLD INDUCTION of TGF-beta levels” value in data set [2] (setting [3]) is reported as 1; in data set [2] (setting [4]) it was 2.6*; in data set [2] (setting [5]), 1; in data set [2] (setting [6]) it was 2*; in data set [2] (setting [7]), 0.8; in data set [2] (setting [8]) it was 1. The “FOLD INDUCTION of TGF-beta levels” value in data set [2] (setting [9]) was 0.6; in data set [2] (setting [10]) it was 1. In addition, the “active TGF-β1 (non-heat-activated samples)” value in data set [2] was “no increase”. In addition, the “increase in TGF-β1 levels” value in data set [2] (nM and μM doses, fibroblasts from the aged subjects (2A or 2B)) turned out to be 2 fold. The “effect on TGF-β1 production compared to controls” value in data set [2] (young fibroblasts (Group 2C)) is “no significant effect”.
